In patent publication US20240261267A1, “METHODS FOR TREATING MULTIPLE SCLEROSIS” (Vanda Pharmaceuticals Inc., priority 2021, published 2024):

How the values were obtained:
primary mouse OPCs = assay: differentiation assay, quantitative PCR; type: cell-based
Protocol: The effects of ponesimod, a selective S1P1 receptor agonist, and A971432, a selective S1P5 receptor agonist, on oligodendrocyte precursor cell (OPC) migration and differentiation were evaluated. Nine concentrations were tested (logarithmic dilutions ranging from 0.3 nM to 3000 nM, n=6 per concentration). Fingolimod phosphate (P-FTY720, 3000 nM, n=6) was included as a positive control, 0.1% DMSO was included (min.one/plate) as a negative control. Primary mouse OPCs were harvested on postnatal day 0 or 1 and mixed glia cultures were maintained for 14 days. Primary OPCs were then purified using the shake-off method, and used for either a migration assay, or a differentiation assay, as detailed below. To harvest primary mouse OPCs, cortices are isolated from mouse pups on postnatal day 0 or 1 and placed in ice-cold Dulbecco's Modified Eagle Medium (DMEM) (Sigma Aldrich, Overijse, BE). The cortices are homogenized and centrifuged for 5 minutes at 300 G. The supernatant is removed, and a papain solution is added for 30 minutes (125 uL DMEM solution per brain containing 20 units/ml papain and 40 μg/ml DNase, at 37 degrees). Digestion is inactivated by adding 9 ml cold DMEM. The solution is then centrifuged for 5 minutes at […]. The supernatant is carefully removed, and the pellet is resuspended in 2-5 ml culture medium (DMEM with 10% fetal calf serum (Biowest, Nuaillé, FR) and 1% pen/strep (Sigma Aldrich, Overijse, BE)). […] Cell suspension is divided over PLL (Sigma Aldrich, Overijse, BE)-coated flasks (2 brains per flask) and DMEM is added to a final volume of 10 ml. DMEM is replaced on day 4, 7, and 11. On day 7 and 11, insulin (Sigma Aldrich, Overijse, BE) is added to the medium (5μg/ml). On day 14, OPCs are separated from astrocytes by the shake-off method: flasks are placed on a shaker for 45 minutes at 75 rpm (37 degrees). The medium is then aspirated and discarded, and 10 ml fresh culture medium is added. Flasks are then returned to the shaker for 16-18 hours shaking at 280 rpm. Next, the medium is isolated, and this cell suspension is placed in a plastic petri dish and incubated for 25 minutes. The medium, which contains the OPCs, is then collected and centrifuged for 5 minutes at 300 G. Cells are then resuspended in SATO differentiation medium containing 2% horse serum, 2% B-27, 50 U/ml P/S, 2.4 μl/ml transferrin, 1.04 μl/ml L-thyroxine, 1 μl/ml putrescin, 1 μl/ml progesterone, 1 μl/ml TIT, 0.74 μl/ml sodium selenite and 0.5 μl/ml insulin (all from Sigma-Aldrich, Overijse, BE). […] After shake-off, cells are reset for their differentiation status: one hour after plating, cells are treated with platelet-derived growth factor (PDGF, 10 ng/ml, Peprotech EC Ltd, London, UK) and fibroblast growth factor (fgf, 10 ng/ml, Peprotech EC Ltd, London, UK). Twenty-four hours after plating, cells are treated again with fgf (10 ng/ml). 250,000 cells are plated onto glass coverslips in 24-well plates. Cells are treated with test compound or DMSO on day 1 (twenty-four hours after fgf treatment) and 3, and lysated on day 4. Total RNA was isolated from primary OPCs, using the RNeasy mini kit (Qiagen, Venlo, the Netherlands), according to the manufacturer's instructions. RNA concentration and quality is analyzed with a Nanodrop spectrophotometer (Isogen Life Science, Leiden, The Netherlands). RNA is reverse-transcribed using the qScript cDNA Supermix kit (Quanta, Leuven, Belgium). qPCR is performed to analyze gene expression, using the Applied Biosystems QuantStudio 3 Real-Time PCR System (Life Technologies, Gent, Belgium). The reaction mixture consists of SYBR Green master mix (Life Technologies, Carlsbad, USA), 10 μM forward and reverse primers (Integrated DNA Technologies, Leuven, Belgium), nuclease-free water and cDNA template (12.5 ng), up to a total reaction volume of 10 μl. […] All data was normalised against plate-matched negative controls.

MS patients = assay: Phase III OPTIMUM study, efficacy outcomes; type: in vivo, human; settings: ponesimod 20 mg compared with teriflunomide 14 mg
[1] = test system: adult subjects with relapsing MS; assay: Phase III OPTIMUM study, safety and treatment discontinuation
Protocol: A prospective, multicenter, randomized, double-blind, active controlled, parallel-group, phase III, superiority study (Phase III OPTIMUM study) was conducted.
Subjects had active disease evidenced by one or more MS attacks with onset within the period of 12 to 1 months prior to baseline EDSS assessment, or by two or more MS attacks with onset within the 24 to 1 months prior to baseline EDSS assessment, or with one or more gadolinium-enhancing (Gd+) lesion(s) of the brain on an MRI performed within 6 months prior to baseline EDSS assessment. Enrolled subjects were ambulatory with an EDSS score of up to 5.5 inclusive. The subjects were treatment-naïve (i.e., no MS disease-modifying therapy received at any time in the past) or previously treated with interferon (IFN) β-1a, IFN β-1b, glatiramer acetate, dimethyl fumarate, or natalizumab.
The treatment period consisted of an up-titration period (from Day 1 to 14) and a maintenance period (Day 15 until EOT).
To reduce the first-dose effect of ponesimod, an up-titration scheme was implemented from Day 1 to Day 14: • Days 1 and 2; 2 mg. • Days 3 and 4; 3 mg. • Days 5 and 6; 4 mg. • Day 7; 5 mg. • Day 8; 6 mg. • Day 9; 7 mg. • Day 10; 8 mg. • Day 11; 9 mg. • Days 12, 13, and 14; 10 mg. • Day 15 until EOT; 20 mg.
The Safety Set (SAF) included all randomized subjects who received at least one dose of study treatment. Subjects were analyzed based on actual treatment taken, not randomized treatment.

[2] = test system: normal appearing white matter (NAWM) of MS patients; assay: Phase III OPTIMUM study, myelination estimated from standardized T1/T2 MRI; type: in vivo, human
Text: The impact of treatment on myelination changes in normal appearing white matter (NAWM) which sustains damage early in the MS disease course was compared
Myelination was estimated from T1 and T2-weighted magnetic resonance images collected at baseline, week 60 and week 108 in 427 patients treated with ponesimod and 428 with teriflunomide. Standardized T1/T2 was used to quantify myelination in non-lesional corpus callosum, cingulum, and remaining NAWM. Average myelination change (ΔM) from baseline at weeks 60 (w60) and 108 (w108) were compared across treatment arms using two-sided two sample t-tests, all p-values nominal.

[3] = Safety Set, ponesimod 20 mg, teriflunomide 14 mg
[4] = ponesimod 20 mg, teriflunomide 14 mg

O=C(O)C1CN(Cc2ccc(OCc3ccc(Cl)c(Cl)c3)cc2)C1 [A97]
MOG expression (primary mouse OPCs; 3 nM): significant decrease
Mag gene expression (primary mouse OPCs; 3 nM): significant decrease
Mbp expression (primary mouse OPCs; 3 nM): decrease
Mag gene expression (primary mouse OPCs; 10 nM): significant decrease
Mbp expression (primary mouse OPCs; 10 nM): decrease
Ng2 gene expression (primary mouse OPCs; 10 nM): significant decrease
PLP expression (primary mouse OPCs; 10 nM): significant decrease
Mag gene expression (primary mouse OPCs; 30 nM): significant decrease
Mobp expression (primary mouse OPCs; 30 nM): significant decrease
Ng2 gene expression (primary mouse OPCs; 30 nM): significant decrease
Mobp expression (primary mouse OPCs; 100 nM): significant decrease
MOG expression (primary mouse OPCs; 300 nM): significant decrease
PLP expression (primary mouse OPCs; 300 nM): significant decrease
Mag gene expression (primary mouse OPCs; 1000 nM): significant decrease
Mbp expression (primary mouse OPCs; 1000 nM): decrease
Mobp expression (primary mouse OPCs; 1000 nM): significant decrease
Ng2 gene expression (primary mouse OPCs; 1000 nM): significant decrease
PLP expression (primary mouse OPCs; 1000 nM): significant decrease
expression of Ng2, Plp, Mbp, Mobp, Mog, and Mag (primary mouse OPCs; concentration series): significant concentration-dependent decreases

CCC/N=C1\S/C(=C\c2ccc(OC[C@H](O)CO)c(Cl)c2)C(=O)N1c1ccccc1C [ponesimod, (R)-5-[3-chloro-4-(2,3-dihydroxy-propoxy)-benz[Z]ylidene]-2-([Z]-propylimino)-3-o-tolyl-thiazolidin-4-one]
Fatigue Symptoms and Impacts Questionnaire-Relapsing Multiple Sclerosis (MS patients): difference
active lesions/year (MS patients): reduction
annualized relapse rate (MS patients): greater reduction
brain volume loss (MS patients): lower
disability accumulation risk estimates (MS patients): reduction
2nd or higher degree AV block ([1]; Day 1, first dose): No 2nd or higher degree AV block
ECG HR effect: nadir ([1]; Day 1, first dose): 2 hours post-dose
subjects meeting discharge criteria at 4 hours post-dose ([1]; Day 1, first dose): ca. 99%
subjects with asymptomatic post-dose HR≤40 bpm ([1]; Day 1, all with pre-treatment HR<55 bpm): 3
AEs leading to premature discontinuation of study drug, SOC Reproductive system and breast disorders [1, 3]: 0 n
AEs leading to premature discontinuation of study drug, SOC Surgical and medical procedures [1, 3]: 0 n
Premature treatment discontinuation: Death [1, 3]: 0 n
Subject with at least one AE leading to study drug discontinuation [1, 3]: 8.7%
Subject with at least one Fatal AE [1, 3]: 0 n
Subject with at least one Serious AE [1, 3]: 8.7%
Subject with at least one treatment-emergent AE [1, 3]: 88.8%
Treatment-emergent AESI: Hepatobiliary disorders/Liver enzyme abnormality [1, 3]: 25.7%
Treatment-emergent AESI: Hypertension [1, 3]: 10.1%
Treatment-emergent AESI: Pulmonary events [1, 3]: 8.0%
mean heart rate reduction compared to pre-dose ([1]; at 2-hours post dose, Day 1): −8.7 bpm
AESI heart rate and rhythm: Electrocardiogram QT prolonged ([1]; on Day 1, Safety Set): 0 n
AESI heart rate and rhythm: Presyncope ([1]; on Day 1, Safety Set): 0 n
AESI effect on heart rate and rhythm (including hypotension): Subjects with at least one AE ([1]; on Day 1, Safety Set, ponesimod arm (2 mg on Day 1), teriflunomide 14 mg): 2.1%
TEAE ALT increased [1, 4]: 19.5%
TEAE headache [1, 4]: 11.5%
TEAE nasopharyngitis [1, 4]: 19.3%
TEAE upper respiratory tract infection [1, 4]: 10.6%
proportion of subjects who experienced ALT increase>3×ULN [1, 4]: 17.3%
proportion of subjects who experienced ALT increase>8×ULN [1, 4]: 0.7%
subjects discontinued due to AEs or tolerability related reasons [1, 4]: 6.5%
changes at the gene expression level (primary mouse OPCs; all concentrations tested, normalised to negative controls): No significant changes
average myelination decrease, comparison across treatment arms ([2]; all regions and both visits (w60, w108), ponesimod 20 mg vs teriflunomide 14 mg): significantly less demyelination
myelination change from baseline (standardized T1/T2) ([2]; non-lesional corpus callosum, cingulum, remaining NAWM, weeks 60 and 108, p<0.05): only the corpus callosum showed a significant decrease at w108
